According to US10329309B2, “3-(3H-imidazo[4,5-B]pyridin-2-yl)-1H-pyrazolo[4,3-B]pyridines and therapeutic uses thereof” (Samumed, LLC, priority 2015, dated 2019):

How the values were obtained:
[1] = test system: primary human fibroblasts derived from IPF patients (LL29 cells), α-smooth muscle actin (αSMA); assay: Inhibition of the fibrotic process: TGF-β1-treated primary human fibroblasts from IPF patients, αSMA staining; assay type: cell-based; details: Fibroblast, 96 h, 4 days; for EC50: LL29 fibroblasts from IPF patients, TGF-β1 20 ng/mL, inhibition of fibrotic process; for inhibition at 10 µM: LL29 fibroblasts, TGF-β1 treated, read-out: percent inhibition at 10 μM (given for EC50 of >10 μM)
Outline: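 Potency reflects suppression of TGF-β1-driven αSMA expression in IPF patient fibroblasts over 4 days. Values are EC50s from normalized αSMA-positive cell counts, with % inhibition at 10 μM when EC50 exceeded 10 μM.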

SW480 colon cancer cells = assay: Cell viability assay (CellTiter-Blue), four days; assay type: cell-based; details: Homo sapiens, 96 h; for EC50: CellTiter-Blue cell viability; for inhibition at 10 µM: read-out: percent inhibition at 10 μM (given for EC50 of >10 μM)
Outline: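 Four-day viability readout in SW480 cells: compound at 0.0045–10 μM (1:3 series), DMSO controls in eight replicates, CellTiter-Blue fluorescence after ~3 h. Values are regression-derived EC50s, or percent inhibition at 10 μM when EC50 exceeds 10 μM.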

Compound | EC50 (SW480 colon cancer cells) | EC50 [1] | inhibition at 10 µM [1] | inhibition at 10 µM (SW480 colon cancer cells)
CCCC(=O)Nc1cncc(-c2ccc3[nH]nc(-c4nc5c(-c6cc(F)cc(CNS(C)(=O)=O)c6)ccnc5[nH]4)c3n2)c1 [Compound 493, N-(5-(3-(7-(3-fluoro-5-(methylsulfonamidomethyl)phenyl)-3H-imidazo[4,5-b]pyridin-2-yl)-1H-pyrazolo[4,3-b]pyridin-5-yl)pyridin-3-yl)butyramide] | > 10 µM | > 10 µM | 0% | 3.9%
CS(=O)(=O)NCc1cc(F)cc(-c2ccnc3[nH]c(-c4n[nH]c5ccc(-c6cncnc6)nc45)nc23)c1 [Compound 503, N-(3-Fluoro-5-(2-(5-(pyrimidin-5-yl)-1H-pyrazolo[4,3-b]pyridin-3-yl)-3H-imidazo[4,5-b]pyridin-7-yl)benzyl)methanesulfonamide] | > 10 µM | > 10 µM | 0% | 0.9%
c1cncc(-c2ccnc3[nH]c(-c4n[nH]c5ccc(-c6cncc(OC7CCCCC7)c6)nc45)nc23)c1 [Compound 559, 5-(5-(Cyclohexyloxy)pyridin-3-yl)-3-(7-(pyridin-3-yl)-3H-imidazo[4,5-b]pyridin-2-yl)-1H-pyrazolo[4,3-b]pyridine] | > 10 µM | 5.18 µM | – | 4%
c1cc(-c2ccnc3[nH]c(-c4n[nH]c5ccc(-c6cncc(OC7CCNCC7)c6)nc45)nc23)ccn1 [Compound 576, 5-(5-(Piperidin-4-yloxy)pyridin-3-yl)-3-(7-(pyridin-4-yl)-3H-imidazo[4,5-b]pyridin-2-yl)-1H-pyrazolo[4,3-b]pyridine] | > 10 µM | 4.07 µM | – | 1.7%
c1ccc(COc2cncc(-c3ccc4[nH]nc(-c5nc6c(-c7ccncc7)ccnc6[nH]5)c4n3)c2)cc1 [Compound 582, 5-(5-(Benzyloxy)pyridin-3-yl)-3-(7-(pyridin-4-yl)-3H-imidazo[4,5-b]pyridin-2-yl)-1H-pyrazolo[4,3-b]pyridine] | > 10 µM | 0.648 µM | – | 2.6%

The next lines start with results.

EC50 (SW480 colon cancer cells) | Compound | EC50 [1] | inhibition at 10 µM [1] | inhibition at 10 µM (SW480 colon cancer cells)
8.3 µM | Fc1cccc(-c2ccnc3[nH]c(-c4n[nH]c5ccc(C6CCNCC6)nc45)nc23)c1 [Compound 505, 3-(7-(3-fluorophenyl)-3H-imidazo[4,5-b]pyridin-2-yl)-5-(piperidin-4-yl)-1H-pyrazolo[4,3-b]pyridine] | 4.93 µM | – | –
> 10 µM | Fc1cccc(-c2ccnc3[nH]c(-c4n[nH]c5ccc(-c6cn[nH]c6)nc45)nc23)c1 [Compound 507, 3-(7-(3-fluorophenyl)-3H-imidazo[4,5-b]pyridin-2-yl)-5-(1H-pyrazol-4-yl)-1H-pyrazolo[4,3-b]pyridine] | > 10 µM | 16.2% | 0%
> 10 µM | Cn1cc(-c2ccc3[nH]nc(-c4nc5c(-c6cccc(F)c6)ccnc5[nH]4)c3n2)cn1 [Compound 508, 3-(7-(3-fluorophenyl)-3H-imidazo[4,5-b]pyridin-2-yl)-5-(1-methyl-1H-pyrazol-4-yl)-1H-pyrazolo[4,3-b]pyridine] | > 10 µM | 8.1% | 0%
> 10 µM | Fc1cccc(-c2ccnc3[nH]c(-c4n[nH]c5ccc(-c6cncc(OC7CCNCC7)c6)nc45)nc23)c1 [Compound 512, 3-(7-(3-fluorophenyl)-3H-imidazo[4,5-b]pyridin-2-yl)-5-(5-(piperidin-4-yloxy)pyridin-3-yl)-1H-pyrazolo[4,3-b]pyridine] | 1.66 µM | – | 15.7%
> 10 µM | Oc1cncc(-c2ccc3[nH]nc(-c4nc5c(-c6cccnc6)ccnc5[nH]4)c3n2)c1 [Compound 565, 5-(3-(7-(Pyridin-3-yl)-3H-imidazo[4,5-b]pyridin-2-yl)-1H-pyrazolo[4,3-b]pyridin-5-yl)pyridin-3-ol] | > 10 µM | 0% | 5.9%
